In ChEMBL document CHEMBL3045569, “Synthesis of allyl esters of fatty acids and their ovicidal effect on Cydia pomonella (L.)” (2009):
≈ marks a conversion by molar mass, not a printed value. Calls of active or inactive are those of the source. The rule behind the calls is not given here.

What follows are compounds tested on Cydia pomonella (assay: Ovicidal activity against <24 hr-old Cydia pomonella (codling moth) eggs assessed as increase in duration of the development of eggs applied as 0.1 ul drop solution topically measured for 3 days). Conditions: not given.
Assay type: functional, organism-based

| Structure (SMILES) | Activity |
| --- | --- |
| C=CCOC(=O)CCCCCCCCCCCCCCCCC [ALLYL OCTADECANOATE] | Active |
| C=CCOC(=O)CCCCCCC [ALLYL OCTANOATE] | Active |
| C=CCOC(=O)CCCCCCCCCCCCC [ALLYL TETRADECANOATE] | Active |
| C=CCOC(=O)CCCCCCCCCCCCCCC [HEXADECANOIC ACID ALLYL ESTER] | Active |

What follows are compounds tested on Cydia pomonella (assay: Ovicidal activity against <24 hr-old Cydia pomonella (codling moth) eggs assessed as mortality at the stage of black head development at 10 mg/ml applied as 0.1 ul drop solution topically measured for 3 days (acetone Rvb = 94.4 +/-0.1%)). Conditions: topical, 72 h.
Assay type: functional

| Structure (SMILES) | mortality at 10000 µg/mL [%] |
| --- | --- |
| C=CCOC(=O)CCCCCCCCCCCCCCCCC [ALLYL OCTADECANOATE] | 43.3 |
| C=CCOC(=O)CCCCCCC [ALLYL OCTANOATE] | 6.7 |
| C=CCOC(=O)CCCCCCCCCCCCC [ALLYL TETRADECANOATE] | 27.8 |
| C=CCOC(=O)CCCCCCCCCCCCCCC [HEXADECANOIC ACID ALLYL ESTER] | 46.7 |

The compounds below were run on Cydia pomonella (assay: Ovicidal activity against <24 hr-old Cydia pomonella (codling moth) eggs assessed as mortality at the stage of red ring development at 10 mg/ml applied as 0.1 ul drop solution topically measured for 3 days (acetone Rvb = 4.4 +/-0.22%)). Conditions: topical, 72 h.
Assay type: functional

| Structure (SMILES) | mortality at 10000 µg/mL [%] |
| --- | --- |
| C=CCOC(=O)CCCCCCCCCCCCCCCCC [ALLYL OCTADECANOATE] | 13.3 |
| C=CCOC(=O)CCCCCCC [ALLYL OCTANOATE] | 13.3 |
| C=CCOC(=O)CCCCCCCCCCCCC [ALLYL TETRADECANOATE] | 17.8 |
| C=CCOC(=O)CCCCCCCCCCCCCCC [HEXADECANOIC ACID ALLYL ESTER] | 24.4 |

Each compound was assayed on Cydia pomonella (assay: Ovicidal activity against <24 hr-old Cydia pomonella (codling moth) eggs assessed as mortality at the stage of white head development at 10 mg/ml applied as 0.1 ul drop solution topically measured for 3 days (acetone Rvb = 1.1 +/-0.44%)). Conditions: topical, 72 h.
Assay type: functional

| Structure (SMILES) | mortality at 10000 µg/mL [%] |
| --- | --- |
| C=CCOC(=O)CCCCCCCCCCCCCCCCC [ALLYL OCTADECANOATE] | 43.3 |
| C=CCOC(=O)CCCCCCC [ALLYL OCTANOATE] | 80 |
| C=CCOC(=O)CCCCCCCCCCCCC [ALLYL TETRADECANOATE] | 54.4 |
| C=CCOC(=O)CCCCCCCCCCCCCCC [HEXADECANOIC ACID ALLYL ESTER] | 28.9 |

These compounds were tested on Cydia pomonella (assay: Ovicidal activity against <24 hr-old Cydia pomonella (codling moth) eggs assessed as mortality applied as 0.1 ul drop solution topically measured for 3 days). Conditions: not given.
Assay type: functional

| Structure (SMILES) | LC90 [µg/mL] |
| --- | --- |
| C=CCOC(=O)CCCCCCCCCCCCCCCCC [ALLYL OCTADECANOATE] | 7330 (≈ 22.6 mM) |
| C=CCOC(=O)CCCCCCC [ALLYL OCTANOATE] | 2180 (≈ 11.8 mM) |
| C=CCOC(=O)CCCCCCCCCCCCC [ALLYL TETRADECANOATE] | 3240 (≈ 12.1 mM) |
| C=CCOC(=O)CCCCCCCCCCCCCCC [HEXADECANOIC ACID ALLYL ESTER] | 7970 (≈ 26.9 mM) |

Same assay, conditions: Cydia pomonella, topical, 72 h

| Structure (SMILES) | LC50 [µg/mL] |
| --- | --- |
| C=CCOC(=O)CCCCCCCCCCCCCCCCC [ALLYL OCTADECANOATE] | 2690 (≈ 8.29 mM) |
| C=CCOC(=O)CCCCCCC [ALLYL OCTANOATE] | 710 (≈ 3.85 mM) |
| C=CCOC(=O)CCCCCCCCCCCCC [ALLYL TETRADECANOATE] | 1410 (≈ 5.25 mM) |
| C=CCOC(=O)CCCCCCCCCCCCCCC [HEXADECANOIC ACID ALLYL ESTER] | 2460 (≈ 8.3 mM) |

Each compound was assayed on Cydia pomonella (assay: Ovicidal activity against <24 hr-old Cydia pomonella (codling moth) eggs assessed as corrected mortality at 0.1 mg/ml applied as 0.1 ul drop solution topically measured for 3 days). Conditions: topical, 72 h.
Assay type: functional

| Structure (SMILES) | mortality at 100 µg/mL [%] |
| --- | --- |
| C=CCOC(=O)CCCCCCCCCCCCCCCCC [ALLYL OCTADECANOATE] | 0 |
| C=CCOC(=O)CCCCCCC [ALLYL OCTANOATE] | 9.7 |
| C=CCOC(=O)CCCCCCCCCCCCC [ALLYL TETRADECANOATE] | 4.6 |
| C=CCOC(=O)CCCCCCCCCCCCCCC [HEXADECANOIC ACID ALLYL ESTER] | 0 |

The compounds below were run on Cydia pomonella (assay: Ovicidal activity against <24 hr-old Cydia pomonella (codling moth) eggs assessed as corrected mortality at 0.5 mg/ml applied as 0.1 ul drop solution topically measured for 3 days). Conditions: topical, 72 h.
Assay type: functional

| Structure (SMILES) | mortality at 500 µg/mL [%] |
| --- | --- |
| C=CCOC(=O)CCCCCCCCCCCCCCCCC [ALLYL OCTADECANOATE] | 11.9 |
| C=CCOC(=O)CCCCCCC [ALLYL OCTANOATE] | 29.9 |
| C=CCOC(=O)CCCCCCCCCCCCC [ALLYL TETRADECANOATE] | 7.5 |
| C=CCOC(=O)CCCCCCCCCCCCCCC [HEXADECANOIC ACID ALLYL ESTER] | 0 |
| CCOC(=O)NCCOc1ccc(Oc2ccccc2)cc1 [PHENOXYCARB] | 100 |

What follows are compounds tested on Cydia pomonella (assay: Ovicidal activity against <24 hr-old Cydia pomonella (codling moth) eggs assessed as corrected mortality at 1 mg/ml applied as 0.1 ul drop solution topically measured for 3 days). Conditions: topical, 72 h.
Assay type: functional

| Structure (SMILES) | mortality at 1000 µg/mL [%] |
| --- | --- |
| C=CCOC(=O)CCCCCCCCCCCCCCCCC [ALLYL OCTADECANOATE] | 17.3 |
| C=CCOC(=O)CCCCCCC [ALLYL OCTANOATE] | 59.2 |
| C=CCOC(=O)CCCCCCCCCCCCC [ALLYL TETRADECANOATE] | 19.8 |
| C=CCOC(=O)CCCCCCCCCCCCCCC [HEXADECANOIC ACID ALLYL ESTER] | 6 |

These compounds were tested on Cydia pomonella (assay: Ovicidal activity against <24 hr-old Cydia pomonella (codling moth) eggs assessed as corrected mortality at 1.75 mg/ml applied as 0.1 ul drop solution topically measured for 3 days). Conditions: topical, 72 h.
Assay type: functional

| Structure (SMILES) | mortality at 1750 µg/mL [%] |
| --- | --- |
| C=CCOC(=O)CCCCCCCCCCCCCCCCC [ALLYL OCTADECANOATE] | 32.1 |
| C=CCOC(=O)CCCCCCC [ALLYL OCTANOATE] | 83.8 |
| C=CCOC(=O)CCCCCCCCCCCCC [ALLYL TETRADECANOATE] | 49.5 |
| C=CCOC(=O)CCCCCCCCCCCCCCC [HEXADECANOIC ACID ALLYL ESTER] | 32.6 |

These compounds were tested on Cydia pomonella (assay: Ovicidal activity against <24 hr-old Cydia pomonella (codling moth) eggs assessed as corrected mortality at 2.5 mg/ml applied as 0.1 ul drop solution topically measured for 3 days). Conditions: topical, 72 h.
Assay type: functional

| Structure (SMILES) | mortality at 2500 µg/mL [%] |
| --- | --- |
| C=CCOC(=O)CCCCCCCCCCCCCCCCC [ALLYL OCTADECANOATE] | 41.6 |
| C=CCOC(=O)CCCCCCC [ALLYL OCTANOATE] | 95.9 |
| C=CCOC(=O)CCCCCCCCCCCCC [ALLYL TETRADECANOATE] | 87.5 |
| C=CCOC(=O)CCCCCCCCCCCCCCC [HEXADECANOIC ACID ALLYL ESTER] | 66.6 |

The compounds below were run on Cydia pomonella (assay: Ovicidal activity against <24 hr-old Cydia pomonella (codling moth) eggs assessed as corrected mortality at 5 mg/ml applied as 0.1 ul drop solution topically measured for 3 days). Conditions: topical, 72 h.
Assay type: functional

| Structure (SMILES) | mortality at 5000 µg/mL [%] |
| --- | --- |
| C=CCOC(=O)CCCCCCCCCCCCCCCCC [ALLYL OCTADECANOATE] | 82.2 |
| C=CCOC(=O)CCCCCCC [ALLYL OCTANOATE] | 97.7 |
| C=CCOC(=O)CCCCCCCCCCCCC [ALLYL TETRADECANOATE] | 97.2 |
| C=CCOC(=O)CCCCCCCCCCCCCCC [HEXADECANOIC ACID ALLYL ESTER] | 72.2 |

What follows are compounds tested on Cydia pomonella (assay: Ovicidal activity against <24 hr-old Cydia pomonella (codling moth) eggs assessed as corrected mortality at 7.5 mg/ml applied as 0.1 ul drop solution topically measured for 3 days). Conditions: topical, 72 h.
Assay type: functional

| Structure (SMILES) | mortality at 7500 µg/mL [%] |
| --- | --- |
| C=CCOC(=O)CCCCCCCCCCCCCCCCC [ALLYL OCTADECANOATE] | 87.2 |
| C=CCOC(=O)CCCCCCC [ALLYL OCTANOATE] | 98.8 |
| C=CCOC(=O)CCCCCCCCCCCCC [ALLYL TETRADECANOATE] | 97.7 |
| C=CCOC(=O)CCCCCCCCCCCCCCC [HEXADECANOIC ACID ALLYL ESTER] | 87.2 |

What follows are compounds tested on Cydia pomonella (assay: Ovicidal activity against <24 hr-old Cydia pomonella (codling moth) eggs assessed as corrected mortality at 10 mg/ml applied as 0.1 ul drop solution topically measured for 3 days). Conditions: topical, 72 h.
Assay type: functional

| Structure (SMILES) | mortality at 10000 µg/mL [%] |
| --- | --- |
| C=CCOC(=O)CCCCCCCCCCCCCCCCC [ALLYL OCTADECANOATE] | 100 |
| C=CCOC(=O)CCCCCCC [ALLYL OCTANOATE] | 100 |
| C=CCOC(=O)CCCCCCCCCCCCC [ALLYL TETRADECANOATE] | 100 |
| C=CCOC(=O)CCCCCCCCCCCCCCC [HEXADECANOIC ACID ALLYL ESTER] | 100 |
